Laboratory results reported in PubChem BioAssay (NCI).
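Five concentrations, 48 hours, 96-well plates. TGI marks complete inhibition of growth.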

Key:
Test in all cases: growth of human tumour cells (NCI), 48 h
A549 NSCLC = tested on: A549 NSCLC
PC-3 prostate = tested on: PC-3 prostate
SF-539 CNS = tested on: SF-539 CNS
K-562 leukemia = tested on: K-562 leukemia
SK-OV-3 ovarian = tested on: SK-OV-3 ovarian
EKVX NSCLC = tested on: EKVX NSCLC
MDA-MB-231 breast = tested on: MDA-MB-231 breast
HL-60(TB) leukemia = tested on: HL-60(TB) leukemia
SNB-75 CNS = tested on: SNB-75 CNS
OVCAR-8 ovarian = tested on: OVCAR-8 ovarian
UACC-257 melanoma = tested on: UACC-257 melanoma
HCT-15 colon = tested on: HCT-15 colon
SR leukemia = tested on: SR leukemia
IGROV1 ovarian = tested on: IGROV1 ovarian
T-47D breast = tested on: T-47D breast
COLO 205 colon = tested on: COLO 205 colon
U251 CNS = tested on: U251 CNS
SNB-19 CNS = tested on: SNB-19 CNS
MDA-MB-435 = tested on: MDA-MB-435
KM12 colon = tested on: KM12 colon
HCC-2998 colon = tested on: HCC-2998 colon
HS 578T breast = tested on: HS 578T breast
HT29 colon = tested on: HT29 colon
SK-MEL-28 melanoma = tested on: SK-MEL-28 melanoma
OVCAR-5 ovarian = tested on: OVCAR-5 ovarian
CCRF-CEM leukemia = tested on: CCRF-CEM leukemia
SW-620 colon = tested on: SW-620 colon
OVCAR-3 ovarian = tested on: OVCAR-3 ovarian
DU-145 prostate = tested on: DU-145 prostate
RXF 393 renal = tested on: RXF 393 renal
UO-31 renal = tested on: UO-31 renal
UACC-62 melanoma = tested on: UACC-62 melanoma
RPMI-8226 leukemia = tested on: RPMI-8226 leukemia
SF-268 CNS = tested on: SF-268 CNS
LOX IMVI melanoma = tested on: LOX IMVI melanoma
786-0 renal = tested on: 786-0 renal
SK-MEL-5 melanoma = tested on: SK-MEL-5 melanoma
HCT-116 colon = tested on: HCT-116 colon
NCI/ADR-RES ovarian = tested on: NCI/ADR-RES ovarian
M14 melanoma = tested on: M14 melanoma
HOP-92 NSCLC = tested on: HOP-92 NSCLC
NCI-H23 lung = tested on: NCI-H23 lung
SN12C renal = tested on: SN12C renal
HOP-62 NSCLC = tested on: HOP-62 NSCLC
MOLT-4 leukemia = tested on: MOLT-4 leukemia
NCI-H226 lung = tested on: NCI-H226 lung
TK-10 renal = tested on: TK-10 renal
ACHN renal = tested on: ACHN renal
MALME-3M melanoma = tested on: MALME-3M melanoma
MDA-N = tested on: MDA-N
A498 renal = tested on: A498 renal
CAKI-1 renal = tested on: CAKI-1 renal
BT-549 breast = tested on: BT-549 breast
NCI-H460 lung = tested on: NCI-H460 lung
NCI-H522 lung = tested on: NCI-H522 lung
OVCAR-4 ovarian = tested on: OVCAR-4 ovarian
MCF7 breast = tested on: MCF7 breast
SK-MEL-2 melanoma = tested on: SK-MEL-2 melanoma
SF-295 CNS = tested on: SF-295 CNS

COc1ccc2c(c1)/C(=C\c1c(Cl)[nH]c3cc(C)c(OC)cc13)C(=O)N2
TGI (A549 NSCLC): 18.2 µM
TGI (PC-3 prostate): 8.27 µM
TGI (SF-539 CNS): 1.24 µM
TGI (K-562 leukemia): 27.7 µM
TGI (SK-OV-3 ovarian): 3.07 µM
TGI (EKVX NSCLC): 16.5 µM
TGI (MDA-MB-231 breast): 13.7 µM
TGI (HL-60(TB) leukemia): 2.46 µM
TGI (SNB-75 CNS): 4.9 µM
TGI (OVCAR-8 ovarian): 8.22 µM
TGI (UACC-257 melanoma): 20.6 µM
TGI (HCT-15 colon): 5.96 µM
TGI (SR leukemia): 2.58 µM
TGI (IGROV1 ovarian): 5.3 µM
TGI (T-47D breast): 40.5 µM
TGI (COLO 205 colon): 5.69 µM
TGI (U251 CNS): 5.55 µM
TGI (SNB-19 CNS): 12.8 µM
TGI (MDA-MB-435): 0.596 µM
TGI (KM12 colon): 5.06 µM
TGI (HCC-2998 colon): 6.19 µM
TGI (HS 578T breast): > 50.7 µM
TGI (HT29 colon): 7.27 µM
TGI (SK-MEL-28 melanoma): 29 µM
TGI (OVCAR-5 ovarian): 14.1 µM
TGI (CCRF-CEM leukemia): > 35.5 µM
TGI (SW-620 colon): > 40.1 µM
TGI (OVCAR-3 ovarian): 1.71 µM
TGI (DU-145 prostate): 5.98 µM
TGI (RXF 393 renal): 7.67 µM
TGI (UO-31 renal): 19.2 µM
TGI (UACC-62 melanoma): 15.9 µM
TGI (RPMI-8226 leukemia): 27.6 µM
TGI (SF-268 CNS): 8.77 µM
TGI (LOX IMVI melanoma): 8.45 µM
TGI (786-0 renal): 13 µM
TGI (SK-MEL-5 melanoma): 8.7 µM
TGI (HCT-116 colon): 6.36 µM
TGI (NCI/ADR-RES ovarian): 4.04 µM
TGI (M14 melanoma): 5.63 µM
TGI (HOP-92 NSCLC): 22.4 µM
TGI (NCI-H23 lung): 2.9 µM
TGI (SN12C renal): 10.7 µM
TGI (HOP-62 NSCLC): 23 µM
TGI (MOLT-4 leukemia): 13.7 µM
TGI (NCI-H226 lung): > 100 µM
TGI (TK-10 renal): 15.9 µM
TGI (ACHN renal): 17.3 µM
TGI (MALME-3M melanoma): 19.2 µM
TGI (MDA-N): 2.13 µM
TGI (A498 renal): 20.2 µM
TGI (CAKI-1 renal): 20.4 µM
TGI (BT-549 breast): 7.95 µM
TGI (NCI-H460 lung): 8.7 µM
TGI (NCI-H522 lung): 6.78 µM
TGI (OVCAR-4 ovarian): 16.2 µM
TGI (MCF7 breast): 16.7 µM
TGI (SK-MEL-2 melanoma): 18.5 µM
TGI (SF-295 CNS): 13.4 µM

CS(=O)(=O)Nc1ccc2ccccc2c1-c1c(NS(C)(=O)=O)ccc2ccccc12
TGI (A549 NSCLC): > 25 µM
TGI (PC-3 prostate): > 25 µM
TGI (SF-539 CNS): > 25 µM
TGI (K-562 leukemia): > 25 µM
TGI (SK-OV-3 ovarian): > 25 µM
TGI (EKVX NSCLC): > 25 µM
TGI (MDA-MB-231 breast): > 25 µM
TGI (HL-60(TB) leukemia): > 25 µM
TGI (SNB-75 CNS): > 25 µM
TGI (OVCAR-8 ovarian): > 25 µM
TGI (UACC-257 melanoma): > 25 µM
TGI (HCT-15 colon): > 25 µM
TGI (SR leukemia): > 25 µM
TGI (IGROV1 ovarian): > 25 µM
TGI (T-47D breast): > 25 µM
TGI (COLO 205 colon): > 25 µM
TGI (U251 CNS): > 25 µM
TGI (SNB-19 CNS): > 25 µM
TGI (MDA-MB-435): > 25 µM
TGI (KM12 colon): > 25 µM
TGI (HCC-2998 colon): > 25 µM
TGI (HS 578T breast): > 25 µM
TGI (HT29 colon): > 25 µM
TGI (SK-MEL-28 melanoma): > 25 µM
TGI (OVCAR-5 ovarian): > 25 µM
TGI (CCRF-CEM leukemia): > 25 µM
TGI (SW-620 colon): > 25 µM
TGI (OVCAR-3 ovarian): > 25 µM
TGI (DU-145 prostate): > 25 µM
TGI (RXF 393 renal): > 25 µM
TGI (UO-31 renal): > 25 µM
TGI (UACC-62 melanoma): > 25 µM
TGI (RPMI-8226 leukemia): > 25 µM
TGI (SF-268 CNS): > 25 µM
TGI (LOX IMVI melanoma): > 25 µM
TGI (786-0 renal): > 25 µM
TGI (SK-MEL-5 melanoma): > 25 µM
TGI (HCT-116 colon): > 25 µM
TGI (NCI/ADR-RES ovarian): > 25 µM
TGI (M14 melanoma): > 25 µM
TGI (HOP-92 NSCLC): > 25 µM
TGI (NCI-H23 lung): > 25 µM
TGI (SN12C renal): > 25 µM
TGI (HOP-62 NSCLC): > 25 µM
TGI (MOLT-4 leukemia): > 25 µM
TGI (NCI-H226 lung): > 25 µM
TGI (TK-10 renal): > 25 µM
TGI (ACHN renal): > 25 µM
TGI (MALME-3M melanoma): > 25 µM
TGI (MDA-N): > 25 µM
TGI (A498 renal): > 25 µM
TGI (CAKI-1 renal): > 25 µM
TGI (BT-549 breast): > 25 µM
TGI (NCI-H460 lung): > 25 µM
TGI (NCI-H522 lung): > 25 µM
TGI (OVCAR-4 ovarian): > 25 µM
TGI (MCF7 breast): > 25 µM
TGI (SK-MEL-2 melanoma): > 25 µM
TGI (SF-295 CNS): > 25 µM
